Results taken from patent US20110152166A1, “METHOD OF MODULATION OF PROTEIN PHOSPHORYLATION-DEPENDENT CONFORMATIONAL TRANSITIONS WITH LOW MOLECULAR WEIGHT COMPOUNDS” (priority 2006, published 2011).
Square brackets hold non-standard residues; d marks the D form. Ends that are not written are not given here. pS = N[C@@H](COP(=O)(O)O)C(=O)O

Key:
GST-PDK1 [Gln150Ala] = target: T1, GST-PDK1 [Gln150Ala] (Homo sapiens, UniProt O15530, Q150A); experiment: PDK1 activity assay with T308tide; assay type: biochemical; conditions: for AC50 / Max. activity: GST-PDK1 [Gln150Ala]; for activation of PDK1 mutant (in words): PDK1[Gln150Ala], 20 μM
T1 construct: different protein constructs, comprising the full length protein or the catalytic domain alone; made in house; host or cells: HEK293 cells (pEBG-2T-PDK1 mutant)
T1 sequence (O15530 1-556 Q150A): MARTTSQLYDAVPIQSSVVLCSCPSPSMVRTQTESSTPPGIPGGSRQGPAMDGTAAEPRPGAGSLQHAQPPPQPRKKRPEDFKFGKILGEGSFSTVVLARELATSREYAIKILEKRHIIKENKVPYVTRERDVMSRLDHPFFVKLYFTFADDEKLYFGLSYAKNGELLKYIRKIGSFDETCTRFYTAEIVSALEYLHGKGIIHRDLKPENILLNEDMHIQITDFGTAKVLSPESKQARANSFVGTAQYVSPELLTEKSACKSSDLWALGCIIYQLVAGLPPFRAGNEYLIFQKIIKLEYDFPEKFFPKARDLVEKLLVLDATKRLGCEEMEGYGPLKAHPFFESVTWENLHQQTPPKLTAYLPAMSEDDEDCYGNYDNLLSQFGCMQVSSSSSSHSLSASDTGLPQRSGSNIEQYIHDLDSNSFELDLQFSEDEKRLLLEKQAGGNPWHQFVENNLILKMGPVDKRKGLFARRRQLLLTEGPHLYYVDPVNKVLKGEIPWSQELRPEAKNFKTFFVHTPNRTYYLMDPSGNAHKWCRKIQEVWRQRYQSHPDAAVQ

GST-S6K11-365 = GST-S6K11-365 (Rattus norvegicus, UniProt P67999); experiment: Global amide hydrogen exchange (HXMS); design: made in house; conditions: early time points; peptide 150 molar excess
Description: (A) Effect of S6K1 tail peptides, described in the legend to FIG. 13, on global deuteron uptake by purified GST-56K11-365. (B) Kinase activity of wt and mutant GST-PKCζ. (C) Global deuteron uptake by wt and mutant GST-PKCζ. (D) Local deuteron uptake by wt and mutant GST-PKCζ. In the PKCζ model, peptides showing strong and no-or-slight protection by the tail phosphate are shown in pink and grey, respectively. The panels show HX curves of the peptides. Experiments were repeated 2 times (A, C, D) or 3 times (B) and data are means±range (A, C) or ±SD (B)
Amide hydrogen (^1H/^2H) exchange monitored by mass spectrometry (HXMS). D2O (99.9 atom % D) was obtained from Cambridge Isotope Laboratories. Isotopic exchange was initiated by diluting 8 μl 20-40 μM protein in 300 μl deuterated buffer (25 mM Tris, 150 mM NaCl, 1 mM dithiothreitol, 10 mM MgCl2, 25 mM glutathione, pD 7.1 uncorrected value). The exchange was carried out at 30° C., and 75 μl aliquots were collected after 1 min, 5 min, 15 min, and 45 min. […]
The LC setup was described previously (Jorgensen et al., 2004), with the modification that proteins were desalted for 5 min and eluted with a 9 min linear gradient (14% to 70% acetonitrile, 0.05% TFA) to separate the free GST from the GST-tagged kinases of interest in the global hydrogen exchange analysis. […] The HXMS data on peptide level were analyzed by HX-Express (Weis et al., 2006). […]

Chain of GST-S6K11-365 (P67999 24-388): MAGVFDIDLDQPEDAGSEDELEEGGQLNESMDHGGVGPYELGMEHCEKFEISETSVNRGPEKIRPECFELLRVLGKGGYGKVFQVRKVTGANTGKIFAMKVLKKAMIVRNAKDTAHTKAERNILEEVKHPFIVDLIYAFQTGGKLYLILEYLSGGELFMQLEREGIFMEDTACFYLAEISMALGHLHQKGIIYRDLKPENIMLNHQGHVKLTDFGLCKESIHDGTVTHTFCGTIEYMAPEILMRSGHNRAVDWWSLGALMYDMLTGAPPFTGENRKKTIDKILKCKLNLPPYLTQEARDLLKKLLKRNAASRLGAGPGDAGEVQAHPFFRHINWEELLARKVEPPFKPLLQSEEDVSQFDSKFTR

| Molecule | AC50 (GST-PDK1 [Gln150Ala]) [µM] | Max. activity (GST-PDK1 [Gln150Ala]) [U/mg] | activation of PDK1 mutant (in words) (GST-PDK1 [Gln150Ala]) | fewer deuterons incorporated in S6K11-365 versus no peptide (GST-S6K11-365) |
| --- | --- | --- | --- | --- |
| O=C(O)CSC(CC(=O)c1ccc(Cl)cc1)c1ccccc1 (centres unmarked) [Compound 1] | 55 ± 9 | 1.12 ± 0.06 | still activated |  |
| P-HM-RSK: phosphorylated HM polypeptide of RSK: KGAGGGGFRGFS(P)FVA (KGAGGGGFRGF[pS]FVA) |  |  | completely abolished |  |
| REPRILSEEEQEMFRDFDYIADWC [PIFtide, reference compound] | 0.5 ± 0.06 | 1.55 ± 0.06 |  |  |
| S371/T389: synthetic S6K1 tail peptide (residues 366-395), non-phosphorylated |  |  |  | no effect |
| S371/pT389: synthetic S6K1 tail peptide (residues 366-395) phosphorylated in the HM |  |  |  | ≈ 10 deuterons |
